Assay results: patent publication US8338422B2, “Indolin-2-ones and aza-indolin-2-ones” (Janssen Pharmaceutica NV, priority 2007, dated 2012)
Where “and” joins values, the source holds several entries; their conditions need not be identical. Equal values may be shown once.

What was measured:
GSK3β (h) = GSK3β (h) (Homo sapiens, UniProt P49841); experiment: GSK-3β human kinase assay (SPA); assay type: biochemical; details: read-out: GSK3B pIC50 (converted)
Procedure, shortened: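 Radiometric SPA read-out: after EDTA stop, biotinylated 33P-labelled peptide bound streptavidin PVT beads and was imaged on Leadseeker. Reaction: 60 min, room temperature, GSK3β (h) at 1 μg/ml, 1 μM substrate peptide, 1 μM ATP with 2 nM [γ-33P]ATP, Tris pH 7.4/MgCl2/DTT buffer.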

A2780 = experiment: Cellular proliferation assay (Alamar blue), A2780; assay type: cell-based; details: Homo sapiens, A2780, 72 h, A2780 cells, 72 hours with compound, 10% FCS, read-out: pIC50 A2780 (converted)
Procedure, shortened: (§1)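 Proliferation was assessed over 72 h of compound treatment, following 24 h of seeding without compound, under 10% FCS, 37° C. and 5% CO2. Fluorescent resazurin product was measured and compared with control cells.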

Colo205 = experiment: Cellular proliferation assay (Alamar blue), Colo205; assay type: cell-based; details: Homo sapiens, COLO 205, Colo205 cells, 72 hours with compound, 10% FCS, read-out: pIC50 Colo205 (converted)
Experimental: (§2) […] functional properties of these compounds was tested in cellular proliferation assays on a panel of different cell lines in the presence of 10% FCS serum (37° C. and 5% (v/v) CO2). In a first step these cells were seeded and incubated for 24 hours in the absence of compound. In the second step the cells were incubated for 72 hours with the compounds to be tested for 72 hours. The viable cell number was finally assessed in a standard Alamar blue cell viability assay.
(§3) The viable cell number was assessed by incubation for either 4 h (HCT-116, H1299, H460) 6 h (SKOV3, HT29, U87-MG, Colo205) or 24 h (A2780, PC3, MDA-MB-231, A549, MCF-7) with Alamar blue (Resazurin 9 μg/ml, K-Ferrocyanide 90 μM K-Ferricyanide 90 μM) and the converted fluorescent product was quantified on a fluorescent plate readed (544 nm/590 nm). Effect of the compounds is calculated as of on control cells.

H1299 = experiment: Cellular proliferation assay (Alamar blue), H1299; assay type: cell-based; details: Homo sapiens, NCI-H1299, 72 h, H1299 cells, 72 hours with compound, 10% FCS, read-out: pIC50 H1299 (converted)
Procedure, shortened: as §1

A549 = experiment: Cellular proliferation assay (Alamar blue), A549; assay type: cell-based; details: Homo sapiens, A549 cells, 72 hours with compound, 10% FCS, read-out: pIC50 A549 (converted)
Experimental: as §2, §3

A431 = experiment: Cellular proliferation assay (Alamar blue), A431; assay type: cell-based; details: Homo sapiens, A-431, A431 cells, 72 hours with compound, 10% FCS, read-out: pIC50 A431 (converted)
Experimental: as §2, §3

U87MG = experiment: Cellular proliferation assay (Alamar blue), U87MG; assay type: cell-based; details: Homo sapiens, U-87 MG, 72 h, U87MG cells, 72 hours with compound, 10% FCS, read-out: pIC50 U87MG (converted)
Procedure, shortened: as §1

SK-N-SH = experiment: Cellular proliferation assay (Alamar blue), SK-N-SH; assay type: cell-based; details: Homo sapiens, SK-N-SH cells, 72 hours with compound, 10% FCS, read-out: pIC50 SK-N-SH (converted)
Experimental: as §2, §3

Chain of GSK3β (h) (P49841 whole entry): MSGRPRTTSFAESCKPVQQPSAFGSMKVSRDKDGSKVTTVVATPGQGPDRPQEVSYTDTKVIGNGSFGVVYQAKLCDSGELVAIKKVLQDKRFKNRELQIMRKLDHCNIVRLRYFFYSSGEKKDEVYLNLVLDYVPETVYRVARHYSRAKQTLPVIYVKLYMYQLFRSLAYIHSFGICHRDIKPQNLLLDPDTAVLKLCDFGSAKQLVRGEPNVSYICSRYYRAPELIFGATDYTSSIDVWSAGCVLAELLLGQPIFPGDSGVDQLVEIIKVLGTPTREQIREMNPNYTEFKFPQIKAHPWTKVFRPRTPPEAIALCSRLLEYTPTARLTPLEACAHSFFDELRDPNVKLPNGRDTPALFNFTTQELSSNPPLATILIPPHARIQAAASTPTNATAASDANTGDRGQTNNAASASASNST

Row | SMILES | IC50 (GSK3β (h)) | IC50 (A2780) | IC50 (Colo205) | IC50 (H1299) | IC50 (A549) | IC50 (A431) | IC50 (U87MG) | IC50 (SK-N-SH)
1 | COc1ccc2cc1OCCCC(=O)N(C)CCCNc1ncnc3c1/C(=C/N2)C(=O)N3 [Compound 9] | 20.9 nM and 23.4 nM | 282 nM | 354 nM | 407 nM | < 302 nM | 1450 nM | 2240 nM | < 302 nM
2 | COc1ccc2cc1OCCCCCC(=O)N1CCN(CC1)c1ncnc3c1/C(=C/N2)C(=O)N3 [Compound 18] | 891 nM | – | > 10000 nM | > 10000 nM | > 10000 nM | > 10000 nM | – | > 10000 nM
3 | COc1ccc2cc1OCCCC(=O)N(C)CCCN(C)c1ncnc3c1/C(=C/N2)C(=O)N3 [Compound 31] | 309 nM and 313 nM | 2880 nM | 1950 nM | 646 nM | 537 nM | > 10000 nM | 1620 nM | < 302 nM
